According to patent US20250312352A1, “GLP-1R MODULATING COMPOUNDS” (Gilead Sciences, Inc., priority 2021, published 2025):

molecular target: T1, GLP-1R (Homo sapiens, UniProt P43220); experiment: GLP-1R activation cAMP assay (Assay 1 or Assay 2); assay type: cell-based; settings: cAMP increase in CHO cells stably expressing GLP-1R; compounds run on one of the two cAMP assays
T1 construct: host or cells: CHO cells
Outline: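 CHO cells stably expressing human GLP-1R were incubated 1 h in HBSS/20 mM HEPES/0.1% BSA, then exposed to 10-point agonist dilutions for 30 min at 37 °C. cAMP increase was measured with an HTRF Gs dynamic kit; EC50 from sigmoidal fit of response versus log concentration.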

T1 sequence (P43220 24-463): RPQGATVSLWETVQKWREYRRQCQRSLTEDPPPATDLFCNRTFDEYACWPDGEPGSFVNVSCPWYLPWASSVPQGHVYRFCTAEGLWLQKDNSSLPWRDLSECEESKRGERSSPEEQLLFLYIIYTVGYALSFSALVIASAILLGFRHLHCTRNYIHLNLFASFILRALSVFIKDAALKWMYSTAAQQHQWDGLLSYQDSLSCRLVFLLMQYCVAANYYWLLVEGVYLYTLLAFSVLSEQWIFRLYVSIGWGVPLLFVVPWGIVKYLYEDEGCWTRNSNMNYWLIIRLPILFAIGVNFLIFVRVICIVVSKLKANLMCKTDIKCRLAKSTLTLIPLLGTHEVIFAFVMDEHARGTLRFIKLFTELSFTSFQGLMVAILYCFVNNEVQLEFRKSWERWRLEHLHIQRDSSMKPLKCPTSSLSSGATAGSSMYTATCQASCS

SMILES	EC50
Cn1nc(COc2cccc(-c3cc(F)c(Cc4nc5ccc(C(=O)O)cc5n4C[C@@H]4CCO4)cc3F)n2)cc1C(F)(F)F [Example 71, (S)-2-(2,5-difluoro-4-(6-((1-methyl-5-(trifluoromethyl)-1H-pyrazol-3-yl)methoxy)pyridin-2-yl)benzyl)-1-(oxetan-2-ylmethyl)-1H-benzo[d]imidazole-6-carboxylic acid]	0.29 nM
Cn1cc(C#Cc2cc(Cl)c(COc3cccc(-c4cc(F)c(Cc5nc6ccc(C(=O)O)cc6n5C[C@@H]5CCO5)cc4F)n3)cn2)cn1 [Example 300, (S)-2-(4-(6-((4-chloro-6-((1-methyl-1H-pyrazol-4-yl)ethynyl)pyridin-3-yl)methoxy)pyridin-2-yl)-2,5-difluorobenzyl)-1-(oxetan-2-ylmethyl)-1H-benzo[d]imidazole-6-carboxylic acid]	0.823 nM
O=C(O)c1ccc2nc(Cc3c(F)cc(-c4ccc(F)c(OCc5ncc(C(F)(F)F)s5)n4)c(F)c3F)n(C[C@@H]3CCO3)c2c1 [Example 446, (S)-1-(oxetan-2-ylmethyl)-2-(2,3,6-trifluoro-4-(5-fluoro-6-((5-(trifluoromethyl)thiazol-2-yl)methoxy)pyridin-2-yl)benzyl)-1H-benzo[d]imidazole-6-carboxylic acid]	0.17 nM
O=C(O)c1ccc2nc(Cc3cc(F)c(-c4cccc(OCc5ccc(C#Cc6ccncc6)cc5F)n4)cc3F)n(C[C@@H]3CCO3)c2c1 [Example 140, (S)-2-(2,5-difluoro-4-(6-((2-fluoro-4-(pyridin-4-ylethynyl)benzyl)oxy)pyridin-2-yl)benzyl)-1-(oxetan-2-ylmethyl)-1H-benzo[d]imidazole-6-carboxylic acid]	0.4 nM
COc1nnc(COc2cccc(-c3cc(F)c(Cc4nc5c(F)cc(C(=O)O)cc5n4[C@@H]4COCC4(C)C)cc3F)n2)s1 [Example 345, (S)-2-(2,5-difluoro-4-(6-((5-methoxy-1,3,4-thiadiazol-2-yl)methoxy)pyridin-2-yl)benzyl)-1-(4,4-dimethyltetrahydrofuran-3-yl)-4-fluoro-1H-benzo[d]imidazole-6-carboxylic acid]	0.027 nM
O=C(O)c1ccc2nc(Cc3cc(F)c(-c4cccc(OCc5ccn(-c6ccc(F)cc6)n5)n4)cc3F)n(C[C@@H]3CCO3)c2c1 [Example 62, (S)-2-(2,5-difluoro-4-(6-((1-(4-fluorophenyl)-1H-pyrazol-3-yl)methoxy)pyridin-2-yl)benzyl)-1-(oxetan-2-ylmethyl)-1H-benzo[d]imidazole-6-carboxylic acid]	1.98 nM
COCCn1c(Cc2cc(F)c(-c3cccc(OCc4ccc(C#CC5CNC5)cc4F)n3)cc2F)nc2ccc(C(=O)O)cc21 [Example 232, 2-(4-(6-((4-(azetidin-3-ylethynyl)-2-fluorobenzyl)oxy)pyridin-2-yl)-2,5-difluorobenzyl)-1-(2-methoxyethyl)-1H-benzo[d]imidazole-6-carboxylic acid]	5.65 nM
COCCn1c(Cc2cc(F)c(-c3cccc(OCc4nnc(OC)s4)n3)cc2Cl)nc2c(F)cc(C(=O)O)cc21 [Example 315, 2-(2-chloro-5-fluoro-4-(6-((5-methoxy-1,3,4-thiadiazol-2-yl)methoxy)pyridin-2-yl)benzyl)-4-fluoro-1-(2-methoxyethyl)-1H-benzo[d]imidazole-6-carboxylic acid]	0.764 nM
NC(=O)c1cc(F)c(COc2nc(-c3cc(F)c(Cc4nc5c(F)cc(C(=O)O)cc5n4C[C@@H]4CCO4)cc3F)ccc2F)cn1 [Example 208, (S)-2-(4-(6-((6-carbamoyl-4-fluoropyridin-3-yl)methoxy)-5-fluoropyridin-2-yl)-2,5-difluorobenzyl)-4-fluoro-1-(oxetan-2-ylmethyl)-1H-benzo[d]imidazole-6-carboxylic acid]	0.02 nM
CC1(C#Cc2cnc(COc3cccc(-c4cc(F)c(Cc5nc6ccc(C(=O)O)cc6n5C[C@@H]5CCO5)cc4F)n3)s2)CC1 [Example 329, (S)-2-(2,5-difluoro-4-(6-((5-((1-methylcyclopropyl)ethynyl)thiazol-2-yl)methoxy)pyridin-2-yl)benzyl)-1-(oxetan-2-ylmethyl)-1H-benzo[d]imidazole-6-carboxylic acid]	0.226 nM
COc1nnc(COc2cccc(-c3cc(F)c(Cc4nc5ccc(C(=O)O)cc5n4CC4(CF)CC4)c(F)c3F)n2)s1 [Example 271, 1-((1-(fluoromethyl)cyclopropyl)methyl)-2-(2,3,6-trifluoro-4-(6-((5-methoxy-1,3,4-thiadiazol-2-yl)methoxy)pyridin-2-yl)benzyl)-1H-benzo[d]imidazole-6-carboxylic acid]	0.897 nM
O=C(O)c1cc(F)c2nc(Cc3c(F)cc(-c4ccc(F)c(OCc5ncc(C(F)(F)F)s5)n4)c(F)c3F)n(C[C@@H]3CCO3)c2c1 [Example 447, (S)-4-fluoro-1-(oxetan-2-ylmethyl)-2-(2,3,6-trifluoro-4-(5-fluoro-6-((5-(trifluoromethyl)thiazol-2-yl)methoxy)pyridin-2-yl)benzyl)-1H-benzo[d]imidazole-6-carboxylic acid]	0.02 nM
Cn1cncc1C#Cc1cnc(COc2cccc(-c3cc(F)c(Cc4nc5ccc(C(=O)O)cc5n4C[C@@H]4CCO4)cc3F)n2)c(F)c1 [Example 293, (S)-2-(2,5-difluoro-4-(6-((3-fluoro-5-((1-methyl-1H-imidazol-5-yl)ethynyl)pyridin-2-yl)methoxy)pyridin-2-yl)benzyl)-1-(oxetan-2-ylmethyl)-1H-benzo[d]imidazole-6-carboxylic acid]	0.184 nM
O=C(O)c1cc(F)c2nc(Cc3cc(F)c(-c4ccnc(OCc5ncc(C(F)(F)F)s5)n4)cc3F)n(C[C@@H]3CCO3)c2c1 [Example 408, (S)-2-(2,5-difluoro-4-(2-((5-(trifluoromethyl)thiazol-2-yl)methoxy)pyrimidin-4-yl)benzyl)-4-fluoro-1-(oxetan-2-ylmethyl)-1H-benzo[d]imidazole-6-carboxylic acid]	0.381 nM

Now from value to compound:

EC50	SMILES
3.64 nM	O=C(O)c1ccc2nc(Cc3cc(F)c(-c4cccc(OCc5ccn(-c6ccncc6)n5)n4)cc3F)n(C[C@@H]3CCO3)c2c1 [Example 125, (S)-2-(2,5-difluoro-4-(6-((1-(pyridin-4-yl)-1H-pyrazol-3-yl)methoxy)pyridin-2-yl)benzyl)-1-(oxetan-2-ylmethyl)-1H-benzo[d]imidazole-6-carboxylic acid]
0.22 nM	O=C(O)c1ccc2nc(Cc3cc(F)c(-c4cccc(OCc5nc6cc(Cl)ccc6s5)n4)cc3F)n(C[C@@H]3CCO3)c2c1 [Example 35, (S)-2-(4-(6-((5-chlorobenzo[d]thiazol-2-yl)methoxy)pyridin-2-yl)-2,5-difluorobenzyl)-1-(oxetan-2-ylmethyl)-1H-benzo[d]imidazole-6-carboxylic acid]
0.52 nM	O=C(O)c1ccc2nc(Cc3cc(F)c(-c4cccc(OCc5nnc(OCC(F)F)s5)n4)cc3F)n(C[C@@H]3CCO3)c2c1 [Example 352, (S)-2-(4-(6-((5-(2,2-difluoroethoxy)-1,3,4-thiadiazol-2-yl)methoxy)pyridin-2-yl)-2,5-difluorobenzyl)-1-(oxetan-2-ylmethyl)-1H-benzo[d]imidazole-6-carboxylic acid]
1.1 nM	Cn1nc(COc2cccc(-c3cc(F)c(Cc4nc5ccc(C(=O)O)cc5n4C[C@@H]4CCO4)cc3F)n2)c2c1CCC2 [Example 73, (S)-2-(2,5-difluoro-4-(6-((1-methyl-1,4,5,6-tetrahydrocyclopenta[c]pyrazol-3-yl)methoxy)pyridin-2-yl)benzyl)-1-(oxetan-2-ylmethyl)-1H-benzo[d]imidazole-6-carboxylic acid]
1.99 nM	O=C(O)c1ccc2nc(Cc3cc(F)c(-c4cccc(OCc5cn6ccccc6n5)n4)cc3F)n(C[C@@H]3CCO3)c2c1 [Example 30, (S)-2-(2,5-difluoro-4-(6-(imidazo[1,2-a]pyridin-2-ylmethoxy)pyridin-2-yl)benzyl)-1-(oxetan-2-ylmethyl)-1H-benzo[d]imidazole-6-carboxylic acid]
5.68 nM	N#Cc1ccc(COc2cccc(-c3cc(F)c(Cc4nc5ccc(C(=O)O)cc5n4C[C@@H]4CCO4)cc3F)n2)o1 [Example 14, (S)-2-(4-(6-((5-cyanofuran-2-yl)methoxy)pyridin-2-yl)-2,5-difluorobenzyl)-1-(oxetan-2-ylmethyl)-1H-benzo[d]imidazole-6-carboxylic acid]
0.125 nM	O=C(O)c1ccc2nc(Cc3cc(F)c(-c4cccc(OCc5ccc(Cl)s5)n4)cc3F)n(C[C@@H]3CCO3)c2c1 [Example 317, (S)-2-(4-(6-((5-chlorothiophen-2-yl)methoxy)pyridin-2-yl)-2,5-difluorobenzyl)-1-(oxetan-2-ylmethyl)-1H-benzo[d]imidazole-6-carboxylic acid]
1.86 nM	Cn1cc(-c2cnc(COc3cccc(-c4cc(F)c(Cc5nc6ccc(C(=O)O)cc6n5C[C@@H]5CCO5)cc4F)n3)s2)nn1 [Example 89, (S)-2-(2,5-difluoro-4-(6-((5-(1-methyl-1H-1,2,3-triazol-4-yl)thiazol-2-yl)methoxy)pyridin-2-yl)benzyl)-1-(oxetan-2-ylmethyl)-1H-benzo[d]imidazole-6-carboxylic acid]
0.44 nM	O=C(O)c1ccc2nc(Cc3cc(F)c(-c4cccc(OCc5cc6ccccn6n5)n4)cc3F)n(C[C@@H]3CCO3)c2c1 [Example 28, (S)-2-(2,5-difluoro-4-(6-(pyrazolo[1,5-a]pyridin-2-ylmethoxy)pyridin-2-yl)benzyl)-1-(oxetan-2-ylmethyl)-1H-benzo[d]imidazole-6-carboxylic acid]
5.57 nM	NC(=O)c1sc(COc2cccc(-c3cc(F)c(Cc4nc5ccc(C(=O)O)cc5n4C[C@@H]4CCO4)cc3F)n2)cc1F [Example 204, 2-[[4-[6-[(5-carbamoyl-4-fluoro-2-thienyl)methoxy]-2-pyridyl]-2,5-difluoro-phenyl]methyl]-3-[[(2S)-oxetan-2-yl]methyl]benzimidazole-5-carboxylic acid]
